Source: a melting point compilation (Tetko et al.; mined from patent text by program, amines drawn as free bases though some values may be those of a salt)

melting point | SMILES
305 to 307 °C | CCCOc1ccccc1C1=NC(=O)C2=NC(S)=NC2=N1
151 to 152 °C | CC1(C)CC(O)CC(C)(C)N1Cc1ccccc1
235 °C | Cc1c(C(=O)Nc2cccc(C#N)c2N2CCC(CN3CCOCC3)CC2)cnn1-c1ccc(Cl)cc1
137 to 138 °C | CS(=O)(=O)c1ccc(-n2nc(C(F)(F)F)cc2-c2ccc(-c3cc4ccccc4o3)cc2)cc1
142 to 146 °C | CC(=O)N(O)C(C)c1cccc(Nc2ccccc2-c2nnc(N)o2)c1Cl (stereo not drawn)
185 to 187 °C | COc1cc(C)nc(NC(=O)NS(=O)(=O)c2ccccc2C(=O)Nc2nccs2)n1
149 to 150 °C | O=C(O)[C@H](Cc1ccccc1)NC(=S)Cc1ccc([N+](=O)[O-])cc1
107 °C | N#Cc1csc2c1CCN(C(=O)C(F)(F)F)CC2c1ccccc1 (stereo not drawn)
243 to 244 °C | O=C(NCc1ccccc1O)c1[nH]c2ccc(Cl)cc2c1S(=O)(=O)c1ccccc1
134 to 135 °C | Cc1ccc(C2SC3(CCN(CCCC(=O)c4ccc(F)cc4)CC3)c3ccccc32)cc1 (stereo not drawn)
98 to 105 °C | Cc1ccc(S(=O)(=O)NC(=O)OCCc2ccc(-n3c(CCC(=O)N4CCCC4)nc4cc(C(F)(F)F)c(Cl)cc43)cc2)cc1
89 to 91 °C | O=S(=O)(c1ccccc1)n1ccc2c(CO)cccc21
110 °C | CC#CCOc1ccc(S(=O)(=O)C2(C(=O)O)CCN(Cc3ccc(C#N)cc3)CC2)cc1
67 to 68.5 °C | CC(C)OC(=O)Cc1ccc2c(c1)C(=O)c1ccccc1CO2
151 to 153 °C | COc1ccccc1C=C1N=C(C)OC1=O
160 to 161 °C | C=C1c2ccccc2C=Cn2c(OC)nnc21
192 to 196 °C | COc1cc(Nc2nc3cccc(-c4ccc(N)cc4)c3o2)cc(OC)c1OC
135 °C | Cc1cc(N)nc(CCc2nc3cc(-c4ccc(S(=O)(=O)N5CCN(C)CC5)cc4)cnc3[nH]2)c1
96 to 98 °C | CC(=NOc1ccc(C=O)cc1)c1ccc(C)cc1
103 to 106 °C | CC(C)c1ccc2c(c1)C(=O)N(C)C(c1ccc(C(C)(C)C)cc1)C2 (stereo not drawn)
81.5 to 82 °C | Oc1ccc(Oc2ccccc2F)cc1
242 to 243 °C | O=C(Nc1ccc(C(F)(F)F)cc1)C1=NN(c2ccc(Cl)c(Cl)c2)C(c2ccc(F)cc2)C1 (stereo not drawn)
128 °C | Cc1cc(O)c(SCc2ccccc2)c(=O)o1
198 to 200 °C | O=C(O)c1cccc(OCc2ccccc2)c1[N+](=O)[O-]

melting point | SMILES
160 to 170 °C | O=c1[nH]nc(-c2ccc(NN=C(c3ccccc3)c3ccc(O)cc3O)cc2)c2ccccc12
94 to 95 °C | CCOC(=O)c1c2ccc(Cl)cc2c(-c2ccccc2)n1CCCC(C)=O
138 to 144 °C | Cc1cccc(-c2[nH]c(C(C)C)nc2-c2cccc(-c3ccc(C(N)=O)cn3)c2)n1
> 330 °C | Cc1nc2cc3c4c(cccc4c2[nH]1)C(=O)N(O)C3=O
97 to 99 °C | CC(C)Cc1ccc(COc2ccc(CC(=O)O)cc2Cl)cc1
116 °C | Cc1ccc(S(=O)(=O)N2CCCC2c2cccc(F)c2)cc1 (racemic)
138 to 141 °C | CCc1nc2cc(C(F)(F)F)c(Cl)cc2n1-c1ccc(C[C@H](C)NC(=O)NS(=O)(=O)c2ccc(C)cc2)cc1
245 to 246 °C | O=c1c2cc(F)c(Cl)nc2n(-c2ccc(C(F)(F)F)cc2)c(=O)n1OCc1ccccc1
> 245 °C | CCCCc1nc2c(N)nc3ccccc3c2n1CCNC(=S)Nc1ccc(-c2c3ccc(=O)cc-3oc3cc(O)ccc23)c(C(=O)O)c1
175 °C | Oc1ncnc2nc(CC3CCN(CC4COc5ccccc5O4)CC3)n(Cc3ccc(F)cc3)c12 (stereo not drawn)
212 to 214 °C | COc1ccccc1NC(=S)NC(NC(=O)c1ccc(C)cc1)C(F)(F)F (stereo not drawn)
202 to 203 °C | CCc1cnc2c(NC(=O)c3c(Cl)cccc3Cl)cccc2c1CN1CCN(C)C1=O
330 to 332 °C | O=C(Nc1nnn[nH]1)c1cnc2sc3ccccc3n2c1=O
105 to 107 °C | CC(=O)c1sc2c(Br)cccc2c1C
120 to 122 °C | COC(=O)C(Cc1ccc(OCCn2ccc3cccnc32)cc1)C(=O)O (stereo not drawn)
114 to 115 °C | CCOC(=O)Cc1ccc(NC(=O)C(CCc2ccccc2)NS(=O)(=O)c2ccc(Cl)cc2)cc1 (racemic)
184 to 185 °C | N#Cc1ccc(C(=O)NNc2ccc(NC(=S)Nc3ccccc3)cc2)cc1
230 to 233 °C | Nc1nc(N)nc(-c2ccc(NS(=O)(=O)c3cc(Cl)ccc3Cl)cc2)n1
240 to 242 °C | O=c1c(-c2ccccc2O)coc2c(O)c(O)ccc12
130 to 131 °C | O=C1CC(c2ccccc2Cl)Cc2nccc(Cl)c21 (stereo not drawn)
132 °C | O=C1CCC(c2ccccc2)(c2ccccc2)[C@@H]2CN(Cc3ccccc3)C[C@H]12 (racemic)
86 to 87 °C | CC(=O)N(O)C(C)/C=C/c1cccc(Oc2ccc(Cl)cc2)c1 (stereo not drawn)
110 to 111 °C | CC(CO)NC(=O)C(NC(=O)OCc1ccccc1)C(Cc1ccccc1)C(=O)O (stereo not drawn)
203 °C | Clc1cccc2c1sc1ncnn12

Second part, the compound before the results:

SMILES | melting point
Cc1cc2c(cc1OCCn1ccnc1)CCCC2=O | 118 to 120 °C
CCC(CC)Nc1cc(C)nc2c1CCC(=O)N2c1c(C)cc(C)cc1C | 124 to 126 °C
CNc1nc(Cl)c(OC(F)F)c(N(C)C)n1 | 127 to 130 °C
CCSc1cc(C)nc(SCC)c1NC(=O)CCCCCCCSc1nc2ccccc2o1 | 82 to 84 °C
CCC(CC)Nc1nc(C)nc(Oc2c(C)cc(C)cc2C)c1N | 248 to 250 °C
CCC(COC(=O)c1ccc[nH]1)C1CN(C)C2Cc3cn(C)c4cccc(c34)C2(OC)C1 (stereo not drawn) | 96 to 98 °C
CCOC(=O)C(NC(=O)OC(C)(C)C)c1csc(NC(=O)CCl)n1 (stereo not drawn) | 192 to 193 °C
COc1ccc(OC)c(-c2nnc3ccc(Cl)nn23)c1 | 111 to 112 °C
O=C1O[C@H](CO)CN1c1ccc(C2CCCCC2)cc1 | 166 to 168 °C
C=CCOc1ccc(Cl)c2oc(Cc3ccc(OC)cc3)c(C)c12 | 90 to 93 °C
COc1ccc(Cn2c3c(ccc2=O)C(C)NC(SC)=N3)cc1Cl (stereo not drawn) | 184 to 186 °C
CCOC(=O)c1ccn2c(=O)c(CC)c(C)nc2c1 | 95 to 96 °C
CCOC(=O)c1cc(C)nc2sc(C(N)=O)c(N)c12 | 205 to 208 °C
CC(C)Oc1cccc2c1C1=NCCN1c1c(-c3noc(C4CC4)n3)ncn1-2 | 211 to 214 °C
N#Cc1nn(-c2c(Cl)cc(C(F)(F)F)cc2Cl)c(N)c1C(F)(F)F | 191 to 193 °C
CCOC(=O)C(=CNC1CC1)C(=O)c1cc(F)c(F)c(F)c1F | 63 to 65 °C
COc1cc(CC(=O)NCCCc2ccc(C)c(C)c2)ccc1OCCN | 125 °C
COc1ccc2[nH]c(SCc3nccc(N(C)C)n3)nc2c1 | 182 to 183 °C
C#CC#Cc1ccc(C(=O)O)cc1 | > 230 °C
CCn1cc(C(=O)O)c(=O)c2cc(Cl)c(N(C)C)cc21 | 210 °C
CC(C)(C)C(=O)C=Cc1ccc(C2OCCO2)cc1 | 79 to 81 °C
Cc1ccc(Cl)cc1N1CN(C)CN(C)C1=S | 157 to 159 °C
Cn1nc(C(=O)O)c(=O)n(C)c1=O | 220 to 223 °C
Cc1cccc(N(C=C(C#N)C#N)N=C(C#N)C#N)c1 | 157 to 159 °C
CCC(C)C(C(=O)NS(C)(=O)=O)c1nc(OC)cc(OC)n1 (stereo not drawn) | 97 to 101 °C
O=c1[nH]ncn1N=Cc1cccnc1 | 264 to 265 °C
CCCNCCc1ccc(NS(=O)(=O)c2ccc(Br)cc2)cc1 | 141 to 143 °C
CC(C)(C)OC(=O)NN(C(=O)OC(C)(C)C)c1ccc(OCC(F)(F)F)cc1 | 140 to 141 °C

SMILES | melting point
CCCCCCCCCCc1ccnc(C(=O)NCC(=O)O)c1 | 79 to 81 °C
COc1cc(C)c(C=O)c(OC)c1OC | 55 to 57 °C
O=C(CF)CS(=O)(=O)C(c1ccc(Cl)cc1)c1ccc(Cl)cc1 | 55 to 58 °C
CC1=C(C(=O)OC(C)(C)C)C(c2ccccc2Cl)c2c[nH]nc2N1 (stereo not drawn) | 207 °C
CC(=O)OCc1csc(=S)n1CCC(=O)O | 144 °C
CCCCCCCCCc1ccc(Oc2cccc(C#N)c2C#N)cc1 | 74 to 81 °C
CNC(=O)c1ccc(OCC(O)CNC(C)C)nc1 (stereo not drawn) | 118 to 120 °C
CCOC(=O)c1cnc2cc(OC)ccc2c1O | > 260 °C
CC(C)Oc1nsc(N)c1C#N | 146 to 148 °C
NC(=O)c1sc2nc(N3CCC(NCC(O)c4cccc5c4OCO5)CC3)cc(C(F)(F)F)c2c1N (stereo not drawn) | 221 to 223 °C
CN=C(SC)N(C)Cc1cc(C)nc(C)c1 | 131 to 133 °C
CCCCCCCCCCCCCCCCCCS(=O)(=O)c1cc(C(=O)O)c2c(c1)c(=O)on2C | 177 to 179 °C
O=c1cc(-c2ccc3[nH]ncc3c2)oc2ncc(CN3CCOCC3)cc12 | 293 °C
COc1cc(OC)c2c(c1)C(C)(C)C1(C=Cc3cc([N+](=O)[O-])cc(OC)c3S1)N2C (stereo not drawn) | 131 °C
COC(=O)c1c(N(C)C(C)=O)cc(C)cc1N(C)C(C)=O | 163 to 164 °C
NC(=O)c1cc2c(SC3CCCCC3)cncc2s1 | 205 to 207 °C
O=C(CO)Nc1nc(CN2CCC(c3c[nH]c4ccccc34)CC2)cs1 | 185 to 188 °C
N#Cc1c[nH]cc1C(F)(F)F | 96 to 97 °C
CC(=O)CC(=O)NC(=O)C(C)C | 148 to 160 °C
Cc1cc2c(c3c1C(c1ccc(C(C)C)cc1)CO3)CCC2 (stereo not drawn) | 77 to 78 °C
COc1ccc(C=CC(=O)O)cc1-c1cc2c(cc1OCCCCCCCO)C(C)(C)CCC2(C)C | 105 to 107 °C
CN1C(=O)N(CC2=C(CC3CCCC3)C(=O)OC2)C(=O)C1(C)C | 77 to 79 °C
CCOC(=O)c1cncc(C#N)c1 | 58 to 59 °C
O=C(Nc1nc(-c2ccc(OC(F)F)cc2)cs1)C1CC1 | 202 to 203 °C
C[C@@H](Cn1ncc2ccc(O)c(Br)c21)O[Si](C)(C)C(C)(C)C | 103 to 105 °C
Cc1cc2cc(NC(=O)NC34CC5CC(CC(C5)C3)C4)ccc2[nH]1 | 146 to 152 °C
O=C1C=CCCC=CCCC=CCCC=C1 | 30 to 37 °C
